# Source: patent US20140045832A1, “Insulin-Like Growth Factor-1 Receptor Inhibitors” (PIRAMAL ENTERPRISES LIMITED, priority 2011, published 2014)
# pIC50: −log10 of the molar value.
# Target: T1, human IGF-1R (Homo sapiens, UniProt P08069)
# T1 construct: IGFRK and IRK enzyme used for the assay was intracellular kinase domain of human IGF-1R and human IR; made in house
# Test: In vitro IGF-1R kinase assay (HTRF)
# Format: biochemical
# Conditions: intracellular kinase domain GST fusion, ATP 20 μM, 1 hour at 23° C., read-out: IGFIR-Activity
# Experimental: The in vitro kinase assays using IGF-1R and IR kinase GST fusion proteins were conducted using a homogeneous time-resolved fluorescence (HTRF) format. […] The standard enzyme reaction buffer consisted of 50 mM Tris HCL (pH: 7.4), 1 mM EGTA, 10 mM MgCl2, 2 mM DTT, 0.01% Tween-20, IGF-1R/IR kinase enzyme, poly GT peptide substrate (Perkin Elmer [Ulight Glu-Tyr (4:1)]n) and ATP [concentration equivalent to Kmapp]. […] Briefly, 2.5 μL enzyme and 2.5 μL inhibitor was pre-incubated for 10 minutes at 23° C. followed by the addition of 2.5 μL of poly GT substrate (final concentration of 50 nM). Reaction was initiated with the addition of 2.5 μL of ATP (final concentration of 20 μM for IGF-1R assay and 10 μM for IR assay). After 1 hour incubation at 23° C., the kinase reaction was stopped with the addition of 5 μL EDTA (final concentration of 10 mM in 20 μL). Europium cryptate—labeled antiphosphotyrosine antibody PY20 (5 μL) was added (final concentration of 2 nM) and the mixture was allowed to equilibrate for 1 hour at 23° C. followed by reading the plate in an Envision plate reader. The intensity of light emission at 665 nm was directly proportional to the level of substrate phosphorylation. The IC50 values for inhibitors were determined by a four-parameter sigmoidal curve fit (Sigma plot or Graph pad).
# IGFRK and IRK enzyme used for the assay was intracellular kinase domain of human IGF-1R and human IR cloned and expressed as GST fusion proteins using the baculovirus expression system and purified using glutathione—Sepharose column.
# T1 sequence (P08069 999-1274 limits assumed): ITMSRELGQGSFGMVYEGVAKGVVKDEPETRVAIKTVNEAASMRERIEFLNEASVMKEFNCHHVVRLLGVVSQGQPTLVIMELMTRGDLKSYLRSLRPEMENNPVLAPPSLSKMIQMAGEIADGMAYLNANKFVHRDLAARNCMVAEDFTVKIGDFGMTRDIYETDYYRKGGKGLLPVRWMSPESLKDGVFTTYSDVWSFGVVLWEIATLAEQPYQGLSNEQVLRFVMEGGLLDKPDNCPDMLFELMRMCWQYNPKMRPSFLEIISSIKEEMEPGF
row,Structure (SMILES),pIC50
1,"NC(=O)c1[nH]c2c(NC(=O)CCC(=O)O)cc(Cl)cc2c1S(=O)(=O)N1CCO[C@H](COc2ccccc2)C1 [Compound 8, (S)-4-(2-carbamoyl-5-chloro-3-(2-(phenoxymethyl)morpholinosulfonyl)-1H-indol-7-ylamino)-4-oxobutanoic acid]",8.18
2,"CC(C)(CC(=O)O)CC(=O)Nc1cc(Cl)cc2c(S(=O)(=O)N3CCO[C@H](COc4ccccc4)C3)c(C(N)=O)[nH]c12 [Compound 9, (S)-5-(2-carbamoyl-5-chloro-3-(2-(phenoxymethyl)morpholinosulfonyl)-1H-indol-7-ylamino)-3,3-dimethyl-5-oxopentanoic acid]",7.25
3,"CC(C)(CC(=O)Nc1cc(Cl)cc2c(S(=O)(=O)N3CCO[C@H](COc4ccccc4)C3)c(C(N)=O)[nH]c12)C(=O)O [Compound 10, (S)-4-(2-carbamoyl-5-chloro-3-(2-(phenoxymethyl)morpholinosulfonyl)-1H-indol-7-ylamino)-2,2-dimethyl-4-oxobutanoic acid]",7.52
4,"NC(=O)c1[nH]c2c(NC(=O)CCCC(=O)O)cc(Cl)cc2c1S(=O)(=O)N1CCO[C@H](COc2ccccc2)C1 [Compound 11, (S)-5-(2-carbamoyl-5-chloro-3-(2-(phenoxymethyl)morpholinosulfonyl)-1H-indol-7-ylamino)-5-oxopentanoic acid]",8.00
5,"NC(=O)c1[nH]c2c(NC(=O)CCCC(=O)N3CCOCC3)cc(Cl)cc2c1S(=O)(=O)N1CCO[C@H](COc2ccccc2)C1 [Compound 13, (S)-5-chloro-7-(5-morpholino-5-oxopentanamido)-3-(2-(phenoxymethyl)morpholinosulfonyl)-1H-indole-2-carboxamide]",8.12
6,"N#CCC(=O)Nc1cc(Cl)cc2c(S(=O)(=O)N3CCO[C@H](COc4ccccc4)C3)c(C(N)=O)[nH]c12 [Compound 14, (S)-5-chloro-7-(2-cyanoacetamido)-3-(2-(phenoxymethyl)morpholinosulfonyl)-1H-indole-2-carboxamide]",< 7.00
7,"CCOC(=O)CCCC(=O)Nc1cc(Cl)cc2c(S(=O)(=O)N3CCO[C@H](COc4ccccc4)C3)c(C(N)=O)[nH]c12 [Compound 15, (S)-ethyl 5-(2-carbamoyl-5-chloro-3-(2-(phenoxymethyl)morpholinosulfonyl)-1H-indol-7-ylamino)-5-oxopentanoate]",> 7.00
8,"NC(=O)c1[nH]c2c(NCCC(=O)O)cc(Cl)cc2c1S(=O)(=O)N1CCO[C@H](COc2ccccc2)C1 [Compound 16, (S)-3-(2-carbamoyl-5-chloro-3-(2-(phenoxymethyl)morpholinosulfonyl)-1H-indol-7-ylamino)propanoic acid]",8.59
9,"NC(=O)CCNc1cc(Cl)cc2c(S(=O)(=O)N3CCO[C@H](COc4ccccc4)C3)c(C(N)=O)[nH]c12 [Compound 17, (S)-7-(3-amino-3-oxopropylamino)-5-chloro-3-(2-(phenoxymethyl)morpholinosulfonyl)-1H-indole-2-carboxamide]",7.94
10,"CCOC(=O)CCCNc1cc(Cl)cc2c(S(=O)(=O)N3CCO[C@H](COc4ccccc4)C3)c(C(N)=O)[nH]c12 [Compound 18, (S)-ethyl 4-(2-carbamoyl-5-chloro-3-(2-(phenoxymethyl)morpholinosulfonyl)-1H-indol-7-ylamino)butanoate]",< 7.00
11,"NC(=O)c1[nH]c2c(NC3CCCCC3)cc(Cl)cc2c1S(=O)(=O)N1CCO[C@H](COc2ccccc2)C1 [Compound 21, (S)-5-chloro-7-(cyclohexylamino)-3-(2-(phenoxymethyl)morpholinosulfonyl)-1H-indole-2-carboxamide]",< 7.00
12,"NC(=O)c1[nH]c2c(NCC3CCCCC3)cc(Cl)cc2c1S(=O)(=O)N1CCO[C@H](COc2ccccc2)C1 [Compound 22, (S)-5-chloro-7-(cyclohexylmethylamino)-3-(2-(phenoxymethyl)morpholinosulfonyl)-1H-indole-2-carboxamide]",< 7.00
13,"NC(=O)c1[nH]c2c(NC3CCCC3)cc(Cl)cc2c1S(=O)(=O)N1CCO[C@H](COc2ccccc2)C1 [Compound 24, (S)-5-chloro-7-(cyclopentylamino)-3-(2-(phenoxymethyl)morpholinosulfonyl)-1H-indole-2-carboxamide]",< 7.00
14,"NC(=O)c1[nH]c2c(NCC3(N)CCCC3)cc(Cl)cc2c1S(=O)(=O)N1CCO[C@H](COc2ccccc2)C1 [Compound 25, (S)-7-((1-aminocyclopentyl)methylamino)-5-chloro-3-(2-(phenoxymethyl)morpholinosulfonyl)-1H-indole-2-carboxamide]",< 7.00
15,"NC(=O)c1[nH]c2c(NCc3ccc(C(=O)O)cc3)cc(Cl)cc2c1S(=O)(=O)N1CCO[C@H](COc2ccccc2)C1 [Compound 26, (S)-4-((2-carbamoyl-5-chloro-3-(2-(phenoxymethyl)morpholinosulfonyl)-1H-indol-7-ylamino)methyl)benzoic acid]",> 7.00
16,"CC(C)(C)NC(=O)N1CCC(Nc2cc(Cl)cc3c(S(=O)(=O)N4CCO[C@H](COc5ccccc5)C4)c(C(N)=O)[nH]c23)CC1 [Compound 27, (S)-7-(1-(tert-butylcarbamoyl)piperidin-4-ylamino)-5-chloro-3-(2-(phenoxymethyl)morpholinosulfonyl)-1H-indole-2-carboxamide]",8.01
17,"NC(=O)c1[nH]c2c(NC3CCN(C(=O)NCC4CCCCC4)CC3)cc(Cl)cc2c1S(=O)(=O)N1CCO[C@H](COc2ccccc2)C1 [Compound 29, (S)-5-chloro-7-(1-(cyclohexylmethylcarbamoyl)piperidin-4-ylamino)-3-(2-(phenoxymethyl)morpholinosulfonyl)-1H-indole-2-carboxamide]",7.48
18,"NC(=O)c1[nH]c2c(NCc3ccc(F)cc3)cc(Cl)cc2c1S(=O)(=O)N1CCO[C@H](COc2ccccc2)C1 [Compound 30, (S)-5-chloro-7-(4-fluorobenzylamino)-3-(2-(phenoxymethyl)morpholinosulfonyl)-1H-indole-2-carboxamide]",< 7.00
19,"CC(C)CN1CCC(Nc2cc(Cl)cc3c(S(=O)(=O)N4CCO[C@H](COc5ccccc5)C4)c(C(N)=O)[nH]c23)CC1 [Compound 31, (S)-5-chloro-7-(1-isobutylpiperidin-4-ylamino)-3-(2-(phenoxymethyl)morpholinosulfonyl)-1H-indole-2-carboxamide]",7.41
20,"NC(=O)c1[nH]c2c(NC3CCNC3)cc(Cl)cc2c1S(=O)(=O)N1CCO[C@H](COc2ccccc2)C1 (stereo partly drawn) [Compound 32, 5-chloro-3-((S)-2-(phenoxymethyl)morpholinosulfonyl)-7-(pyrrolidin-3-ylamino)-1H-indole-2-carboxamide]",7.31
21,"CCOC(=O)N1CCC(Nc2cc(F)cc3c(S(=O)(=O)N4CCO[C@H](COc5ccccc5)C4)c(C(N)=O)[nH]c23)CC1 [Compound 33, (S)-ethyl 4-(2-carbamoyl-5-fluoro-3-(2-(phenoxymethyl)morpholinosulfonyl)-1H-indol-7-ylamino)piperidine-1-carboxylate]",> 7.00
22,"NC(=O)c1[nH]c2c(NC(=S)Nc3ccccc3)cc(Cl)cc2c1S(=O)(=O)N1CCO[C@H](COc2ccccc2)C1 [Compound 35, (S)-5-chloro-3-(2-(phenoxymethyl)morpholinosulfonyl)-7-(3-phenylthioureido)-1H-indole-2-carboxamide]",8.89
23,"NC(=O)c1[nH]c2c(NC3CCNCC3)cc(Cl)cc2c1S(=O)(=O)N1CCO[C@H](COc2ccccc2)C1 [Compound 36, (S)-5-chloro-3-(2-(phenoxymethyl)morpholinosulfonyl)-7-(piperidin-4-ylamino)-1H-indole-2-carboxamide]",7.66

# Target: T2, CYP3A4 (Homo sapiens, UniProt P08684)
# T2 construct: purchased Invitrogen (Vivid screening kits)
# Test: CYP inhibition fluorescence assay (rhCYP450, Vivid Invitrogen kit)
# Format: in vitro ADME
# Conditions: recombinant human CYP3A4, 10 μM compound, read-out: % inhibition of CYP 3A4 at 10 μM
# Experimental: The % inhibition @ 10 μM data was generated from an rhCYP450/fluorescence assay according to the Vivid Invitrogen screening kits. The compounds were screened against CYP 3A4 isoform because CYP3A4 is responsible for the metabolism of approximately 50-60% of clinical drugs. The lower the percentage inhibition, the lower the CYP450 inhibitory liability of that specific compound.
# T2 sequence (P08684 whole entry): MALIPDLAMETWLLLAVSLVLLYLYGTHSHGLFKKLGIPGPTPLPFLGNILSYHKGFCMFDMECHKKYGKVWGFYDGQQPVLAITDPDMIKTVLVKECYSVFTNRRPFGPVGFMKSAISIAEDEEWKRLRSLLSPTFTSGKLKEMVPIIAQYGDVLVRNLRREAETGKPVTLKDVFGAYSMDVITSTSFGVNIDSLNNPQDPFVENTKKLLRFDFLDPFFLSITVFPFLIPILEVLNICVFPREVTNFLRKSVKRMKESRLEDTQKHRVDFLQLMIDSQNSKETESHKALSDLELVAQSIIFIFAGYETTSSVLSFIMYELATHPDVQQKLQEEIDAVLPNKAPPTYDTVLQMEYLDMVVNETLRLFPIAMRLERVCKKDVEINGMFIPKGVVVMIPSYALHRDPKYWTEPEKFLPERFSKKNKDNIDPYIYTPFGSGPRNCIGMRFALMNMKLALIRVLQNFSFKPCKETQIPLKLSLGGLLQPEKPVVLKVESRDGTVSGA
row,Structure (SMILES),inhibition at 10 µM [%]
1,"NC(=O)c1[nH]c2c(NC(=O)CCC(=O)O)cc(Cl)cc2c1S(=O)(=O)N1CCO[C@H](COc2ccccc2)C1 [Compound 8, (S)-4-(2-carbamoyl-5-chloro-3-(2-(phenoxymethyl)morpholinosulfonyl)-1H-indol-7-ylamino)-4-oxobutanoic acid]",0
2,"NC(=O)c1[nH]c2c(NC(=O)CCCC(=O)O)cc(Cl)cc2c1S(=O)(=O)N1CCO[C@H](COc2ccccc2)C1 [Compound 11, (S)-5-(2-carbamoyl-5-chloro-3-(2-(phenoxymethyl)morpholinosulfonyl)-1H-indol-7-ylamino)-5-oxopentanoic acid]",15
3,"NC(=O)c1[nH]c2c(NC(=O)CCCC(=O)N3CCOCC3)cc(Cl)cc2c1S(=O)(=O)N1CCO[C@H](COc2ccccc2)C1 [Compound 13, (S)-5-chloro-7-(5-morpholino-5-oxopentanamido)-3-(2-(phenoxymethyl)morpholinosulfonyl)-1H-indole-2-carboxamide]",46
4,"NC(=O)c1[nH]c2c(NC(=S)Nc3ccccc3)cc(Cl)cc2c1S(=O)(=O)N1CCO[C@H](COc2ccccc2)C1 [Compound 35, (S)-5-chloro-3-(2-(phenoxymethyl)morpholinosulfonyl)-7-(3-phenylthioureido)-1H-indole-2-carboxamide]",< 40
